Laboratory results published in PubChem BioAssay (NCI).
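Assay format: 96-well plates, 48-hour exposure. GI50 marks 50% less growth. TGI is the concentration that stops growth completely.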

Experiments:
Experiment in all cases: NCI-60 cell line screen, 48 h
NCI-H226 lung = tested on: NCI-H226 lung
IGROV1 ovarian = tested on: IGROV1 ovarian
MDA-MB-435 = tested on: MDA-MB-435
DU-145 prostate = tested on: DU-145 prostate
NCI-H23 lung = tested on: NCI-H23 lung
M14 melanoma = tested on: M14 melanoma
MOLT-4 leukemia = tested on: MOLT-4 leukemia
COLO 205 colon = tested on: COLO 205 colon
NCI/ADR-RES ovarian = tested on: NCI/ADR-RES ovarian
A498 renal = tested on: A498 renal
K-562 leukemia = tested on: K-562 leukemia
HL-60(TB) leukemia = tested on: HL-60(TB) leukemia
OVCAR-3 ovarian = tested on: OVCAR-3 ovarian
SNB-75 CNS = tested on: SNB-75 CNS
UACC-257 melanoma = tested on: UACC-257 melanoma
EKVX NSCLC = tested on: EKVX NSCLC
A549 NSCLC = tested on: A549 NSCLC
NCI-H522 lung = tested on: NCI-H522 lung
MDA-MB-231 breast = tested on: MDA-MB-231 breast
OVCAR-8 ovarian = tested on: OVCAR-8 ovarian
BT-549 breast = tested on: BT-549 breast
SK-OV-3 ovarian = tested on: SK-OV-3 ovarian
SK-MEL-2 melanoma = tested on: SK-MEL-2 melanoma
SN12C renal = tested on: SN12C renal
OVCAR-5 ovarian = tested on: OVCAR-5 ovarian
HCT-15 colon = tested on: HCT-15 colon
LOX IMVI melanoma = tested on: LOX IMVI melanoma
CAKI-1 renal = tested on: CAKI-1 renal
ACHN renal = tested on: ACHN renal
786-0 renal = tested on: 786-0 renal
HOP-92 NSCLC = tested on: HOP-92 NSCLC
MCF7 breast = tested on: MCF7 breast
HS 578T breast = tested on: HS 578T breast
RPMI-8226 leukemia = tested on: RPMI-8226 leukemia
TK-10 renal = tested on: TK-10 renal
PC-3 prostate = tested on: PC-3 prostate
CCRF-CEM leukemia = tested on: CCRF-CEM leukemia
HCT-116 colon = tested on: HCT-116 colon
MALME-3M melanoma = tested on: MALME-3M melanoma
U251 CNS = tested on: U251 CNS
T-47D breast = tested on: T-47D breast
UACC-62 melanoma = tested on: UACC-62 melanoma
SK-MEL-5 melanoma = tested on: SK-MEL-5 melanoma
SK-MEL-28 melanoma = tested on: SK-MEL-28 melanoma
SF-539 CNS = tested on: SF-539 CNS
HCC-2998 colon = tested on: HCC-2998 colon
SW-620 colon = tested on: SW-620 colon
NCI-H460 lung = tested on: NCI-H460 lung
RXF 393 renal = tested on: RXF 393 renal
SR leukemia = tested on: SR leukemia
SF-268 CNS = tested on: SF-268 CNS
KM12 colon = tested on: KM12 colon
SF-295 CNS = tested on: SF-295 CNS
UO-31 renal = tested on: UO-31 renal
OVCAR-4 ovarian = tested on: OVCAR-4 ovarian
HOP-62 NSCLC = tested on: HOP-62 NSCLC
HT29 colon = tested on: HT29 colon
SNB-19 CNS = tested on: SNB-19 CNS

SMILES: Cc1c(Cl)cccc1Nc1ncccc1C(=O)O
- GI50 (NCI-H226 lung): > 100 µM
- TGI (NCI-H226 lung): > 100 µM
- GI50 (IGROV1 ovarian): > 100 µM
- TGI (IGROV1 ovarian): > 100 µM
- GI50 (MDA-MB-435): 82.9 µM
- TGI (MDA-MB-435): > 100 µM
- GI50 (DU-145 prostate): > 100 µM
- TGI (DU-145 prostate): > 100 µM
- GI50 (NCI-H23 lung): 58.3 µM
- TGI (NCI-H23 lung): > 100 µM
- GI50 (M14 melanoma): > 100 µM
- TGI (M14 melanoma): > 100 µM
- GI50 (MOLT-4 leukemia): > 100 µM
- TGI (MOLT-4 leukemia): > 100 µM
- GI50 (COLO 205 colon): 93.7 µM
- TGI (COLO 205 colon): > 100 µM
- GI50 (NCI/ADR-RES ovarian): 78.7 µM
- TGI (NCI/ADR-RES ovarian): > 100 µM
- GI50 (A498 renal): 34.3 µM
- TGI (A498 renal): > 100 µM
- GI50 (K-562 leukemia): 62.7 µM
- TGI (K-562 leukemia): > 100 µM
- GI50 (HL-60(TB) leukemia): > 100 µM
- TGI (HL-60(TB) leukemia): > 100 µM
- GI50 (OVCAR-3 ovarian): 39.8 µM
- TGI (OVCAR-3 ovarian): > 100 µM
- GI50 (SNB-75 CNS): > 100 µM
- TGI (SNB-75 CNS): > 100 µM
- GI50 (UACC-257 melanoma): > 100 µM
- TGI (UACC-257 melanoma): > 100 µM
- GI50 (EKVX NSCLC): 34.1 µM
- TGI (EKVX NSCLC): > 100 µM
- GI50 (A549 NSCLC): > 100 µM
- TGI (A549 NSCLC): > 100 µM
- GI50 (NCI-H522 lung): 81.2 µM
- TGI (NCI-H522 lung): > 100 µM
- GI50 (MDA-MB-231 breast): 92.3 µM
- TGI (MDA-MB-231 breast): > 100 µM
- GI50 (OVCAR-8 ovarian): > 100 µM
- TGI (OVCAR-8 ovarian): > 100 µM
- GI50 (BT-549 breast): 61.2 µM
- TGI (BT-549 breast): > 100 µM
- GI50 (SK-OV-3 ovarian): > 100 µM
- TGI (SK-OV-3 ovarian): > 100 µM
- GI50 (SK-MEL-2 melanoma): > 100 µM
- TGI (SK-MEL-2 melanoma): > 100 µM
- GI50 (SN12C renal): > 100 µM
- TGI (SN12C renal): > 100 µM
- GI50 (OVCAR-5 ovarian): > 100 µM
- TGI (OVCAR-5 ovarian): > 100 µM
- GI50 (HCT-15 colon): 38.1 µM
- TGI (HCT-15 colon): > 100 µM
- GI50 (LOX IMVI melanoma): 54.9 µM
- TGI (LOX IMVI melanoma): > 100 µM
- GI50 (CAKI-1 renal): 59 µM
- TGI (CAKI-1 renal): > 100 µM
- GI50 (ACHN renal): 58.5 µM
- TGI (ACHN renal): > 100 µM
- GI50 (786-0 renal): 70.4 µM
- TGI (786-0 renal): > 100 µM
- GI50 (HOP-92 NSCLC): 41.6 µM
- TGI (HOP-92 NSCLC): > 100 µM
- GI50 (MCF7 breast): > 100 µM
- TGI (MCF7 breast): > 100 µM
- GI50 (HS 578T breast): 63.1 µM
- TGI (HS 578T breast): > 100 µM
- GI50 (RPMI-8226 leukemia): 47.7 µM
- TGI (RPMI-8226 leukemia): > 100 µM
- GI50 (TK-10 renal): > 100 µM
- TGI (TK-10 renal): > 100 µM
- GI50 (PC-3 prostate): 52.3 µM
- TGI (PC-3 prostate): > 100 µM
- GI50 (CCRF-CEM leukemia): 64.2 µM
- TGI (CCRF-CEM leukemia): > 100 µM
- GI50 (HCT-116 colon): 46.8 µM
- TGI (HCT-116 colon): > 100 µM
- GI50 (MALME-3M melanoma): 73.4 µM
- TGI (MALME-3M melanoma): > 100 µM
- GI50 (U251 CNS): 63.4 µM
- TGI (U251 CNS): > 100 µM
- GI50 (T-47D breast): 68 µM
- TGI (T-47D breast): > 100 µM
- GI50 (UACC-62 melanoma): 48.3 µM
- TGI (UACC-62 melanoma): > 100 µM
- GI50 (SK-MEL-5 melanoma): 52.7 µM
- TGI (SK-MEL-5 melanoma): > 100 µM
- GI50 (SK-MEL-28 melanoma): > 100 µM
- TGI (SK-MEL-28 melanoma): > 100 µM
- GI50 (SF-539 CNS): 77.2 µM
- TGI (SF-539 CNS): > 100 µM
- GI50 (HCC-2998 colon): 63.3 µM
- TGI (HCC-2998 colon): > 100 µM
- GI50 (SW-620 colon): > 100 µM
- TGI (SW-620 colon): > 100 µM
- GI50 (NCI-H460 lung): 53 µM
- TGI (NCI-H460 lung): > 100 µM
- GI50 (RXF 393 renal): > 100 µM
- TGI (RXF 393 renal): > 100 µM
- GI50 (SR leukemia): > 100 µM
- TGI (SR leukemia): > 100 µM
- GI50 (SF-268 CNS): > 100 µM
- TGI (SF-268 CNS): > 100 µM
- GI50 (KM12 colon): > 100 µM
- TGI (KM12 colon): > 100 µM
- GI50 (SF-295 CNS): 16.7 µM
- TGI (SF-295 CNS): 76.7 µM
- GI50 (UO-31 renal): 55.7 µM
- TGI (UO-31 renal): > 100 µM
- GI50 (OVCAR-4 ovarian): 90.6 µM
- TGI (OVCAR-4 ovarian): > 100 µM
- GI50 (HOP-62 NSCLC): > 100 µM
- TGI (HOP-62 NSCLC): > 100 µM
- GI50 (HT29 colon): > 100 µM
- TGI (HT29 colon): > 100 µM
- GI50 (SNB-19 CNS): > 100 µM
- TGI (SNB-19 CNS): > 100 µM
